Consider one compound from PMC12490239, “Combining BET inhibition with SMAC mimetics restricts tumor growth and triggers immune surveillance in preclinical cancer models” (Cell Reports Medicine, 2025).

Holding throughout (test): cells
Set-up in all cases: CellTiter-Glo 2.0 luminescence proliferation/viability assay, single agents, human tumour cell line panel
For orientation: Cellular ATP, detected with luciferase, serves as a proxy for viable cell number.

For one assay, the system named is CACO2. The following applies: Homo sapiens, Caco-2, 96 h; single agent; read-out: IC50 SMACm. Summed up:
(§1)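 Human tumour cell lines were seeded into assay plates and held at 37°C with 5% CO2 for twenty-four hours, then exposed in triplicate to rising concentrations of the SMAC mimetic, from 4.5 nM to 10 μM, with DMSO as control. After 96 h, viability was read as CellTiter-Glo2.0 luminescence to derive single-agent IC50 values.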

In the next assay the test system is HCC1833. The following applies: 96 h; single agent; read-out: IC50 SMACm. In outline:
as §1

Another assay deals with HT55. The following applies: Homo sapiens, HT55, 96 h; single agent; read-out: IC50 SMACm. In outline:
as §1

For a further assay, the system named is HROC374. The following applies: 96 h; single agent; read-out: IC50 SMACm. In outline:
as §1

For the next assay, the system named is HCA24. The note with it: 96 h; single agent; read-out: IC50 SMACm. In outline:
as §1

For the next assay, the system named is KM12SM. The note with it: 96 h; single agent; read-out: IC50 SMACm. Summed up: as §1
The subject of a further assay is COLO-201. The note with it: Homo sapiens, COLO 201, 96 h; single agent; read-out: IC50 SMACm. In outline: as §1
A further assay has as its system SUIT-2. The note with it: SUIT-2, 96 h; single agent; read-out: IC50 SMACm. Summed up:
as §1

A further assay relates to HT-115. The following applies: HT115, 96 h; single agent; read-out: IC50 SMACm. Summed up:
as §1

Another assay relates to ChaGo-K-1. The following applies: Homo sapiens, ChaGo-K-1, 96 h; single agent; read-out: IC50 SMACm. Summed up:
as §1

Another assay relates to NCI-H2030. The note with it: Homo sapiens, NCI-H2030, 96 h; single agent; read-out: IC50 SMACm. In outline:
as §1

For a further assay, the system named is PSN1. The note with it: Homo sapiens, PSN1, 96 h; single agent; read-out: IC50 SMACm. Summed up:
as §1

Another assay deals with C99. The following applies: 96 h; single agent; read-out: IC50 SMACm. Summed up:
as §1

A further assay deals with SNU-668. The note with it: SNU668, 96 h; single agent; read-out: IC50 SMACm. Summed up:
as §1

The subject of the next assay is HCC1195. The note with it: 96 h; single agent; read-out: IC50 SMACm. In outline:
as §1

SMILES strings stand for the structures.

Broadly, the IC50 is the midpoint of a concentration-inhibition curve. In the case of `CN[C@@H](C)C(=O)Nc1ccc(-c2c(-c3cccnc3OC)nc3cc(C)ccn23)c(C#Cc2ccc3c(C)nccc3c2)n1` [SMACm, BI 891065], the IC50 stood at 2.97 µM with CACO2; 0.102 µM with HCC1833; 5 µM in the assay with HT55; 3.34 µM with HROC374; 1.73 µM in the assay on HCA24; 4.31 µM with KM12SM. Also, the IC50 is 0.369 µM in the assay on COLO-201; 4.77 µM in the assay on SUIT-2; 3.87 µM in the assay on HT-115; 5.42 µM with ChaGo-K-1; 4.29 µM in the assay on NCI-H2030; 7.21 µM in the assay with PSN1. In addition, the figures for the IC50 in the assay with C99, in the assay on SNU-668 and in the assay on HCC1195 were 3.8 µM, 6.29 µM and 4.59 µM, respectively.
